# Measured values: patent US20130261077A1 (priority 2012, published 2013)
# Biological target: T1, FimH-CRD (Escherichia coli, UniProt P08191)
# T1 construct: The first 177 amino acids of the FimH protein; thrombin tag (printed as 'fusion protein with thrombin') (cleaved yes); made in house; host or cells: bacteria (pET21b plasmid)
# Test: Competitive binding assay by fluorescence polarization, assay 2 (compounds prepared by robotics, plates frozen and thawed)
# Method in brief: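 Fluorescence-polarization competition of 5 nM Alexa 647 mannoside probe with 60 nM FimH-CRD (first 177 residues, tag removed) in Tris-Cl pH 7.0, NaCl, EDTA, β-ME, BSA, 2.5% DMSO, 5 h at RT in the dark. Twelve-point 3-fold titrations (0.4 nM–75 μM) in duplicate; Kd interpolated from displacement curves.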
# T1 sequence (P08191 22-177): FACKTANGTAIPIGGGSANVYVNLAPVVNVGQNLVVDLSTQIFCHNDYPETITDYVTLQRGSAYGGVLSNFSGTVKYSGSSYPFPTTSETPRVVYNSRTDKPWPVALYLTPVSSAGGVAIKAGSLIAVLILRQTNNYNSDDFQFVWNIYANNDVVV
row,SMILES,Kd [nM]
1,"OC[C@H]1O[C@H](c2cccc(OCCF)c2)[C@@H](O)[C@@H](O)[C@@H]1O [Compound 206, (2R,3S,4R,5S,6R)-2-[3-(2-fluoroethoxy)phenyl]-6-(hydroxymethyl)tetrahydropyran-3,4,5-triol]",28.4 ± 6.2
2,CCC(C)COc1cccc(C2O[C@H](CO)[C@@H](O)[C@H](O)[C@@H]2O)c1 (some centres unmarked) [Compound 207],9.4 ± 4.3
3,OC[C@H]1OC(c2cccc(OCCCCC(F)(F)F)c2)[C@@H](O)[C@@H](O)[C@@H]1O (some centres unmarked) [Compound 209],12.5 ± 5.3
4,OC[C@H]1OC(c2cccc(OCC3CCO3)c2)[C@@H](O)[C@@H](O)[C@@H]1O (some centres unmarked) [Compound 210],24.2 ± 1.3
5,COC(=O)c1ccc(COc2cccc(C3O[C@H](CO)[C@@H](O)[C@H](O)[C@@H]3O)c2)cc1 (some centres unmarked) [Compound 211],8 ± 2.4
6,CNC(=O)COc1cccc(C2O[C@H](CO)[C@@H](O)[C@H](O)[C@@H]2O)c1 (some centres unmarked) [Compound 212],18.9 ± 0.8
7,OC[C@H]1OC(c2cccc(OCc3ccc(-n4cncn4)cc3)c2)[C@@H](O)[C@@H](O)[C@@H]1O (some centres unmarked) [Compound 213],9.3 ± 0.5
8,CC1(COc2cccc(C3O[C@H](CO)[C@@H](O)[C@H](O)[C@@H]3O)c2)COC1 (some centres unmarked) [Compound 214],12 ± 7.9
9,OC[C@H]1OC(c2cccc(OCC3CCCCC3)c2)[C@@H](O)[C@@H](O)[C@@H]1O (some centres unmarked) [Compound 215],13.1 ± 3.9
10,OC[C@H]1OC(c2cccc(OCCC3CCCCC3)c2)[C@@H](O)[C@@H](O)[C@@H]1O (some centres unmarked) [Compound 216],16.4 ± 5.2
11,OC[C@H]1OC(c2cccc(OCCCc3ccccc3)c2)[C@@H](O)[C@@H](O)[C@@H]1O (some centres unmarked) [Compound 217],12.1 ± 7.6
12,O=C(COc1cccc(C2O[C@H](CO)[C@@H](O)[C@H](O)[C@@H]2O)c1)C1CCCCC1 (some centres unmarked) [Compound 218],8.7 ± 1.4
13,O=C(NCCCOc1cccc(C2O[C@H](CO)[C@@H](O)[C@H](O)[C@@H]2O)c1)c1ccccc1 (some centres unmarked) [Compound 219],16.3 ± 5.1
14,OC[C@H]1OC(c2cccc(OCc3ccccc3-c3ccccc3)c2)[C@@H](O)[C@@H](O)[C@@H]1O (some centres unmarked) [Compound 220],16.6 ± 4.4
15,Cc1nn(-c2ccccc2)nc1COc1cccc(C2O[C@H](CO)[C@@H](O)[C@H](O)[C@@H]2O)c1 (some centres unmarked) [Compound 221],8.2 ± 0.5
16,OC[C@H]1OC(c2cccc(OCc3ccccc3)c2)[C@@H](O)[C@@H](O)[C@@H]1O (some centres unmarked) [Compound 222],40.7 ± 1.2
17,COC(=O)c1cccc(COc2cccc(C3O[C@H](CO)[C@@H](O)[C@H](O)[C@@H]3O)c2)c1 (some centres unmarked) [Compound 223],23.2 ± 1.6
18,CNC(=O)c1ccc(COc2cccc(C3O[C@H](CO)[C@@H](O)[C@H](O)[C@@H]3O)c2)cc1 (some centres unmarked) [Compound 225],34.5 ± 12.3
19,OC[C@H]1OC(c2cccc(OCc3cc(Cl)cc(Cl)c3)c2)[C@@H](O)[C@@H](O)[C@@H]1O (some centres unmarked) [Compound 226],32.1 ± 8.9
20,"CNC(=O)c1cccc(COc2cccc([C@H]3O[C@H](CO)[C@@H](O)[C@H](O)[C@@H]3O)c2)c1 [Compound 227, N-methyl-3-[[3-[(2R,3S,4R,5S,6R)-3,4,5-trihydroxy-6-(hydroxymethyl)tetrahydropyran-2-yl]phenoxy]methyl]benzamide]",37.1 ± 15.4
21,Cc1cccc(COc2ccc(C3O[C@H](CO)[C@@H](O)[C@H](O)[C@@H]3O)cc2)n1 (some centres unmarked) [Compound 228],9.2 ± 0.04
22,CCC#CCOc1ccc(C2O[C@H](CO)[C@@H](O)[C@H](O)[C@@H]2O)cc1 (some centres unmarked) [Compound 229],33.1 ± 4
23,N#CCCCOc1ccc(C2O[C@H](CO)[C@@H](O)[C@H](O)[C@@H]2O)cc1 (some centres unmarked) [Compound 230],13.9 ± 3.6
24,CC[C@H](C)COc1ccc(C2O[C@H](CO)[C@@H](O)[C@H](O)[C@@H]2O)cc1 (some centres unmarked) [Compound 231],8.9 ± 1.4

row,SMILES,Kd [nM]
1,CC(C)CCOc1ccc(C2O[C@H](CO)[C@@H](O)[C@H](O)[C@@H]2O)cc1 (some centres unmarked) [Compound 232],8.5 ± 4.2
2,COCCCOc1ccc(C2O[C@H](CO)[C@@H](O)[C@H](O)[C@@H]2O)cc1 (some centres unmarked) [Compound 233],10.3 ± 3.9
3,OC[C@H]1OC(c2ccc(OCCCCF)cc2)[C@@H](O)[C@@H](O)[C@@H]1O (some centres unmarked) [Compound 234],11.4 ± 4.5
4,O=C(COc1ccc(C2O[C@H](CO)[C@@H](O)[C@H](O)[C@@H]2O)cc1)C1CC1 (some centres unmarked) [Compound 235],14.1 ± 0.3
5,OC[C@H]1OC(c2ccc(OCC3CCOCC3)cc2)[C@@H](O)[C@@H](O)[C@@H]1O (some centres unmarked) [Compound 236],11.5 ± 4.6
6,OC[C@H]1OC(c2ccc(OCc3ccc(F)cc3)cc2)[C@@H](O)[C@@H](O)[C@@H]1O (some centres unmarked) [Compound 237],7.9 ± 1.6
7,OC[C@H]1OC(c2ccc(OCCc3cccc(F)c3)cc2)[C@@H](O)[C@@H](O)[C@@H]1O (some centres unmarked) [Compound 238],9.7
8,COc1ccc(CCOc2ccc(C3O[C@H](CO)[C@@H](O)[C@H](O)[C@@H]3O)cc2)cc1 (some centres unmarked) [Compound 239],7.7 ± 0.05
9,OC[C@H]1OC(c2ccc(OCc3cccc4cccnc34)cc2)[C@@H](O)[C@@H](O)[C@@H]1O (some centres unmarked) [Compound 240],7.6 ± 0.9
10,CC(C)(C)c1ccc(COc2ccc(C3O[C@H](CO)[C@@H](O)[C@H](O)[C@@H]3O)cc2)cc1 (some centres unmarked) [Compound 241],10.2 ± 0.8
11,COc1ccccc1NC(=O)COc1ccc(C2O[C@H](CO)[C@@H](O)[C@H](O)[C@@H]2O)cc1 (some centres unmarked) [Compound 242],21.5 ± 3.9
12,COC(=O)CCCOc1ccc(C2O[C@H](CO)[C@@H](O)[C@H](O)[C@@H]2O)cc1 (some centres unmarked) [Compound 243],5.8
13,OC[C@H]1OC(c2ccc(OCc3ccc4ccccc4c3)cc2)[C@@H](O)[C@@H](O)[C@@H]1O (some centres unmarked) [Compound 244],23.3 ± 1.1
14,OC[C@H]1OC(c2ccc(OCc3ccccc3)cc2)[C@@H](O)[C@@H](O)[C@@H]1O (some centres unmarked) [Compound 245],22.8 ± 2.4
15,COC(=O)c1cccc(COc2ccc(C3O[C@H](CO)[C@@H](O)[C@H](O)[C@@H]3O)cc2)c1 (some centres unmarked) [Compound 246],23.6 ± 5.5
16,O=C(O)c1cccc(COc2ccc(C3O[C@H](CO)[C@@H](O)[C@H](O)[C@@H]3O)cc2)c1 (some centres unmarked) [Compound 247],32 ± 5.1
17,CNC(=O)c1ccc(COc2ccc(C3O[C@H](CO)[C@@H](O)[C@H](O)[C@@H]3O)cc2)cc1 (some centres unmarked) [Compound 249],19.6 ± 10.2
18,OC[C@H]1OC(c2ccc(OCc3cc(Cl)cc(Cl)c3)cc2)[C@@H](O)[C@@H](O)[C@@H]1O (some centres unmarked) [Compound 250],40.6 ± 23.4
19,OC[C@H]1OC(c2ccc(OCc3cccc4nonc34)cc2)[C@@H](O)[C@@H](O)[C@@H]1O (some centres unmarked) [Compound 251],29.9 ± 13.9
20,"OC[C@H]1O[C@H](c2cccc(Oc3ccncc3)c2)[C@@H](O)[C@@H](O)[C@@H]1O [Compound 252, (2R,3S,4R,5S,6R)-2-(hydroxymethyl)-6-[3-(4-pyridyloxy)phenyl]tetrahydropyran-3,4,5-triol]",13.2 ± 2.2
21,"OC[C@H]1O[C@H](c2cccc(Oc3nc4ccccc4s3)c2)[C@@H](O)[C@@H](O)[C@@H]1O [Compound 253, (2R,3S,4R,5S,6R)-2-[3-(1,3-benzothiazol-2-yloxy)phenyl]-6-(hydroxymethyl)tetrahydropyran-3,4,5-triol]",< 5
22,OC[C@H]1OC(c2cccc(Oc3ccnc4ccccc34)c2)[C@@H](O)[C@@H](O)[C@@H]1O (some centres unmarked) [Compound 254],7.9
23,"OC[C@H]1O[C@H](c2cccc(Oc3ncccn3)c2)[C@@H](O)[C@@H](O)[C@@H]1O [Compound 256, (2R,3S,4R,5S,6R)-2-(hydroxymethyl)-6-(3-pyrimidin-2-yloxyphenyl)tetrahydropyran-3,4,5-triol]",67.6 ± 21.8
